Reference: patent publication US20250250265A1, “BENZOTHIAZOLE-PHENYLSULFONYL-PIPERIDINE ANALOGS AS ACTIVATORS OF NACYLPHOSPHATIDYLETHANOLAMINE HYDROLYZING PHOSPHOLIPASE D” (priority 2022, published 2025)
Entries after “also recorded” stand apart in the source; their conditions may differ. Where two headings read alike, the source gives them in different places.

What was measured:
[1] = molecular target: T1, soluble epoxide hydrolase (sEH) (Homo sapiens, UniProt P34913); assay: sEH activity assay (Cayman Chemicals); assay type: biochemical; conditions: for inhibition at 33 µM: 33 μM compound, compared to vehicle (0%); for Remaining sEH Activity (33 μM): Table 3; for inhibition of sEH activity: graded concentrations
T1 construct: purchased Cayman Chemicals
T1 sequence (P34913 1-555): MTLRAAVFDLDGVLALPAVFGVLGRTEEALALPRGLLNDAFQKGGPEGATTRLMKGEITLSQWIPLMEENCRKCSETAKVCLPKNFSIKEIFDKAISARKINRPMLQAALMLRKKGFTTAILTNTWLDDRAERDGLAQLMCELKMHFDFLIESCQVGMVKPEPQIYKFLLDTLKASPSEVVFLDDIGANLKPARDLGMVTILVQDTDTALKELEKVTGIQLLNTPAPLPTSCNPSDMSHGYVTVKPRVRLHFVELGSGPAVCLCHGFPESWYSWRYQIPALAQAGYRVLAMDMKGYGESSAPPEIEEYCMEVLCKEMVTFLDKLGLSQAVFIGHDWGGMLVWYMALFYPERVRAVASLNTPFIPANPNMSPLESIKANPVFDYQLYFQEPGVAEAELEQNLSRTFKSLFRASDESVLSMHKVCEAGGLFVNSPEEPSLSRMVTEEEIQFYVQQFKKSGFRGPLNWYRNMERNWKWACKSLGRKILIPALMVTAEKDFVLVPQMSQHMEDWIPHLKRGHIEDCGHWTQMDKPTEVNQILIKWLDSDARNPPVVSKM
Experimental: Concentration response curves were plotted for VU534 for the enzymes fatty acid amide hydrolase (FAAH) and soluble epoxide hydrolase (sEH).
The fluorescence interference assay was performed using the same method as the HTS assay, but with BODIPY-FL C5 (Thermo Fisher Scientific) used in place of PED-A1. sEH and FAAH activity assays were performed according to the manufacturer's specifications (Cayman Chemicals).

[2] = molecular target: T2, recombinant mouse NAPE-PLD (Mus musculus, UniProt Q8BH82); assay: In vitro fluorescence NAPE-PLD activity assay (HTS/CRC) with recombinant mouse NAPE-PLD and PED-A1; assay type: biochemical; conditions: for Emax (95% Cl): Table 4, maximal efficacy as fold increase in NAPE-PLD activity versus vehicle only; for bAC175: compound concentration to induce 175% basal activity; for Max % bA (%): maximum induced activity compared to basal (100%) activity
T2 construct: hexahistidine (His6) (C); made in house; host or cells: E. coli
T2 sequence (Q8BH82 1-396): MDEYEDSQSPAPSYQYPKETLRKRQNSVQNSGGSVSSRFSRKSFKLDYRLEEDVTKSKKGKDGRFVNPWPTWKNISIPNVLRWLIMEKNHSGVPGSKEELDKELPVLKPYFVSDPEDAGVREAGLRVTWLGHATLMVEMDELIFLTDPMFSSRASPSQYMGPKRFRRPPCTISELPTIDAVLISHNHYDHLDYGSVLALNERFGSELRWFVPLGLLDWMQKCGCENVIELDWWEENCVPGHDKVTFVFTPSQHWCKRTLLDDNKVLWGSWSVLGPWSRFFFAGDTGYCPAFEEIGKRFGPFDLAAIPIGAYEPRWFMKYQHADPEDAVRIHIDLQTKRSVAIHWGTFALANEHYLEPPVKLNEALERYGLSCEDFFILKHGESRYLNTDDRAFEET
Experimental: Using the fluorogenic NAPE substrate, PED-A1, and recombinant mouse NAPE-PLD (rNAPE-PLD), an in vitro high-throughput (HTS) assay was conducted to screen ˜40,000 compounds for their ability to modulate NAPE-PLD activity. The HTS assay enabled the detection of both NAPE-PLD activators and inhibitors. […] Initial structure-activity response studies with the top hits identified benzothiazole phenylsulfonyl-piperidine carboxamide analogs (BT-PSP analogs) as lead compounds for NAPE-PLD activators (Table 1). The lead BT-PSP analog identified, VU534, induces 50% of its activation effect on NAPE-PLD at 270 nM (AC50 270 nM), and induces a maximal effect of 195% of basal NAPE-PLD activity (Table 1).
In vitro fluorescence NAPE-PLD activity assays using recombinant NAPE-PLD and either PED-A1 or flame-NAPE as fluorogenic substrate were performed as previously described except with small modifications as noted below. See Aggarwal et al., J. Biol. Chem. 295(21): 7289-7300 (2020); Zarrow et al., J. Lipid Res. 63(1): 100156 (2022).
For the HTS assays, test compounds were incubated with recombinant enzyme for 1 h prior to adding PED-A1 (final 0.4 μM) mixed with N-palmitoyl-dioleoyl-PE (final 3.6 μM) to adjust for the high sensitivity of the Panoptic instrument (WaveFront Biosciences). Assays used black-wall, clear-bottom, non-sterile, and non-treated 384-well plates (Greiner Bio-One 781906). The assay was read in kinetic fluorescence mode on the Panoptic instrument for 4 min and the slope of the signal from 30-100 s was used for analysis. A total of 39,328 compounds from the Vanderbilt Discovery Collection were tested, each at 10 μM. The tested compounds were chosen to represent a structurally diverse selection from the full library. Each 384-well plate included 320 test compound wells and 64 control wells. Unlike previous pilot screening assays, bithionol (10 μM final) was used in place of lithocholic acid (100 μM final) as the inhibitor control. Before performing high-throughput screening, a checkerboard assay was performed to validate the assay parameters. This yielded a Z′ score of 0.676. Z′ scores were also calculated for each plate during screening, and plates with scores <0.5 were re-run. The average Z′ across all screening plates was 0.52, and the total hit rate was 3.6%. B-scores were calculated from the initial slopes across each plate using WaveGuide software (WaveFront Biosiences). Modulator hits were defined as compounds with absolute B-scores of 3 or higher. The number of compounds in various B-score ranges were as follows: […], 12 compounds; −10 to −5, 221 compounds; −5 to −3, 770 compounds; −3 to 3, 37924 compounds; 3 to 4, 314 compounds; 4 to 6, 70 compounds; 6 to 10, 15 compounds. Activator hits with B-scores of >3 were selected for the replication assay and a selection of analogs of the activators.
Concentration response curve (CRC) experiments used the same assay conditions as the HTS assay, except that graded concentrations of each test compound were used, with total amount of vehicle (DMSO) kept constant. CRC experiments with purified recombinant mouse NAPE-PLD were performed on two separate days, with values from each day normalized to vehicle only controls on same plate, and then all normalized values from both days averaged together. CRC experiments with human NAPE-PLD represent value from only a single day, due to limited amounts of this recombinant enzyme.

[3] = Table 2, maximal induced activity for recombinant NAPE-PLD compared to basal (100%), read-out: Emax (%)
[4] = Table 2, rNAPE-PLD activity assay, read-out: EC50
[5] = Table 3, read-out: In vitro EC50
[6] = Table 3, read-out: In vitro Emax (100% activity is baseline activity of vehicle only)
[7] = Table 1, concentration for 50% maximum activation from basal activity (no activator)

Compound | inhibition at 33 µM [1] | Emax [2, 3] | EC50 [2, 4] | Remaining sEH Activity (33 μM) [1] | EC50 [2, 5] | Emax [2, 6] | Emax (95% Cl) [2] | bAC175 ([2]; Table 1) | AC50 [2, 7] | Max % bA (%) ([2]; Table 1) | inhibition of sEH activity [1] | AC50 (nM) [2, 7] | EC50 (μM) ([2]; Table 2, rNAPE-PLD activity assay)
Cc1cccc2sc(NC(=O)C3CCN(S(=O)(=O)c4cnn(C)c4)CC3)nc12 [MRJ-058D] | 20% | 240% | 1500 nM |  |  |  |  |  |  |  |  |  | 
O=C(Nc1nc2ccccc2s1)C1CCN(S(=O)(=O)c2ccc(F)c(Cl)c2)CC1 [VU233] |  |  |  | 117% |  |  | <1.2 fold |  |  |  | neither VU533 nor VU233 significantly inhibited seH |  | 
Cc1ccc2sc(NC(=O)C3CCN(S(=O)(=O)c4ccc(F)cc4)CC3)nc2c1C [VU517] | 70% | 210% | 1500 nM | 29% | 1500 nM | 213% | 2.0 (2.0-2.1) fold | 1480 nM | 767 nM | 190% |  |  | 
Cc1ccc2nc(NC(=O)C3CCN(S(=O)(=O)c4ccc(F)cc4)CC3)sc2c1 [VU486] | 40% | 190% | 240 nM | 60% | 240 nM | 189% | 1.8 (1.7-1.9) fold |  |  |  |  |  | 
Cc1cc(C)c2sc(NC(=O)C3CCN(S(=O)(=O)c4ccc(F)cc4)CC3)nc2c1 [VU534, N-(5,7-Dimethylbenzo[d]thiazol-2-yl)-1-((4-fluorophenyl)sulfonyl)piperidine-4-carboxamide] | 75% | 205% | 280 nM | 27% | 290 nM | 209% | 2.1 (2.0-2.2) fold | 750 nM | 270 nM | 195% | inhibition of sEH; also recorded: modest inhibition; also recorded: inhibits |  | 
Cc1cccc2sc(NC(=O)C3CCN(S(=O)(=O)c4cnn(C)c4)CC3)nc12 [VU210] |  |  |  | 81% | 1500 nM | 239% | 2.4 (2.3-2.6) fold |  |  |  |  |  | 
Cc1ccc(C)c2sc(NC(=O)C3CCN(S(=O)(=O)c4ccc(F)cc4)CC3)nc12 [VU533] |  | < 120% |  |  |  |  | 2.6 (2.6-2.8) fold |  |  | <120% | neither VU533 nor VU233 significantly inhibited seH | Not active | Inactive
Cc1cc2nc(NC(=O)C3CCN(S(=O)(=O)c4ccc(F)cc4)CC3)sc2cc1C [VU536] | 50% | 225% | 890 nM | 49% | 890 nM | 227% | 2.3 (2.2-2.4) fold | 2400 nM | 1540 nM | 215% |  |  | 

Now from value to molecule, other results behind:

inhibition at 33 µM [1] | Emax [2, 3] | EC50 [2, 4] | Remaining sEH Activity (33 μM) [1] | EC50 [2, 5] | Emax [2, 6] | Emax (95% Cl) [2] | bAC175 ([2]; Table 1) | AC50 [2, 7] | Max % bA (%) ([2]; Table 1) | Compound | inhibition of sEH activity [1] | AC50 (nM) [2, 7] | EC50 (μM) ([2]; Table 2, rNAPE-PLD activity assay)
 |  |  | 48% | ~940 nM | ~176% | 2.1 (2.0-2.2) fold |  |  |  | Cc1cccc2sc(NC(=O)C3CCN(S(=O)(=O)c4cccnc4)CC3)nc12 [VU211] |  |  | 
 |  |  | 59% | 3400 nM | 183% | 1.8 (1.7-2.0) fold |  |  |  | O=C(Nc1nc2ccccc2s1)C1CCN(S(=O)(=O)c2cccnc2)CC1 [VU203] |  |  | 
50% | 180% | 4700 nM |  |  |  |  |  |  |  | Cc1cccc2sc(NC(=O)C3CCN(S(=O)(=O)c4ccc(F)c(Cl)c4)CC3)nc12 [MRJ-058B] |  |  | 
 |  |  | 63% | ~2900 nM | ~150% | 1.7 (1.6-1.9) fold |  |  |  | Cn1cc(S(=O)(=O)N2CCC(C(=O)Nc3nc4ccccc4s3)CC2)cn1 [VU227] |  |  | 
45% | 220% | 190 nM | 55% | 190 nM | 215% | 2.4 (2.3-2.5) fold | 1690 nM | 950 nM | 210% | Cc1ccc(S(=O)(=O)N2CCC(C(=O)Nc3nc4c(C)cc(C)cc4s3)CC2)cc1 [VU575] |  |  | 
50% | 175% | 940 nM |  |  |  |  |  |  |  | Cc1cccc2sc(NC(=O)C3CCN(S(=O)(=O)c4cccnc4)CC3)nc12 [MRJ-058C] |  |  | 
 |  |  | 62% | 4700 nM | 179% | 1.9 (1.8-2.1) fold |  |  |  | Cc1cccc2sc(NC(=O)C3CCN(S(=O)(=O)c4ccc(F)c(Cl)c4)CC3)nc12 [VU209] |  |  | 
